# According to US20170304369A1, “METHODS OF DIFFERENTIATING STEM CELLS INTO LIVER CELL LINEAGES” (Agency for Science, Technology and Research, priority 2014, published 2017):
# “Also recorded” adds a separate entry of the source. Read-outs that look alike come from different tables or passages of the source.
# B1: BMP4: activator of BMP signaling (protein, UniProt P12644 293-408, looked up)
# Bone morphogenetic protein 4: SPKHHSQRARKKNKNCRRHSLYVDFSDVGWNDWIVAPPGYQAFYCHGDCPFPLADHLNSTNHAIVQTLVNSVNSSIPKACCVPTELSAISMLYLDEYDKVVLKNYQEMVVEGCGCR
# B2: OSM: Oncostatin M (protein, UniProt P13725 26-221, looked up)
# Oncostatin-M: AAIGSCSKEYRVLLGQLQKQTDLMQDTSRLLDPYIRIQGLDVPKLREHCRERPGAFPSEETLRGLGRRGFLQTLNATLGCVLHRLADLEQRLPKAQDLERSGLNIEDLEKLQMARPNILGLRNNIYCMAQLLDNSDTAEPTKAGRGASQPPTPTPASDAFQRKLEGCRFLHGYHRFMHSVGRVFSKWGESPNRSRR
# Experiments:
# [1] = tested on: adult human hepatocytes; experiment: Adult human primary hepatocytes in vitro culture, liver gene expression after 2 days; format: cell-based
# Source text: RNA was extracted using Zymo RNA extraction kit. RT-quantitative PCR was used to quantify gene expression. […]
# The signals that promote hepatocyte specification and/or maturation were considered to also ameliorate such loss of liver maturity and gene expression during in vitro culture. Thus, the signaling pathways that appear to be dysregulated were investigated including Notch, TGFb, Wnt, as well as other major signaling pathways including estrogen, BMP, FGF, PKA/cAMP pathways, in order to determine the effects on liver genes after 2 days.
# [2] = tested on: PFG cells; experiment: Liver bud (LB) specification from posterior foregut, days 4-6, gene expression; format: cell-based, human; conditions: for subsequent expression of ALB: treatment during LB specification, then hepatic specification medium; for LB gene expression / expansion: addition at the LB specification stage
# Protocol: (§1) mTeSR1-grown hPSCs were cultured and differentiated as follows: • a) hPSCs cells were seeded at 1:12 as small clumps using Accutase (Millipore, Cat#SCR005) and Geltrex (Lifetech, Cat#A1413302). • b) Anterior Primitive Streak (day 1) was specified using Activin A (100 ng/ml), CHIR99021 (3 μM), PI-103 (50 nM) and Fgf2 (10 ng/ml) in serumless CDM2 basal medium for 24 hr. • c) Activin A (100 ng/ml) and DM3189 (250 nM) and PI-103 (50 nM) were added in the same basal medium for 24 hr to induce Definitive Endoderm (DE) (day 2). • d) DE was then patterned into PFG by using A83-01 (1 μM), RA (2 μM), BMP4 (30 ng/ml) and Fgf2 (10 ng/ml) in CDM KOSR basal media for another 24 hrs. • e) PFG was further differentiated to LB progenitors using Activin A (100 ng/ml), 8-bromo-CAMP (1 mM) and BMP4 (10 ng/ml) in CDM KOSR basal media for 3 days (day 4 to 6). • f) LB progenitors were treated with BMP4 (10 ng/ml), Oncostatin M (10 ng/ml), Dexamethasone ([…]), DAPT, C59 (1 μM) or RO4919097 (2 μM), forskolin ([…]), human recombinant insulin (10 μg/ml), ascorbic acid-2 phosphate (200 μg/ml), L-gluthathione ([…]) and amino acid concentrate and in IMDM/F12 media for the next 6 days (day 7 to 12) to induce hepatic progenitors. • g) Hepatic progenitors were treated with Dexamethasone (10 μM), RO4929097 (2 μM) or DAPT (10 μM), Forskolin (10 μM), human recombinant insulin (10 μg/ml), ascorbic acid-2 phosphate (200 μg/ml) in IMDM/F12 media for 6 days (day 13 to 18) to generate hepatocyte-like cells. Intra-Splenic Transplantation into FRG^−/− Mice
# (§2) RNA was extracted using Zymo RNA extraction kit. RT-quantitative PCR was used to quantify gene expression. Primer sequences were designed by NCBI Primer Tool and primer specificity and linearity was tested before usage for gene expression analyses.
# The signaling pathways, including Retinoic, Nodal/Activin, Bmp, PKA, FGF and Wnt signaling, were explored to determine if they could directly regulate LB specification.
# [3] = tested on: hPSC-derived LB cells; experiment: Hepatic progenitor specification from hPSC-derived LB cells (days 7-12), liver gene expression; conditions: for subsequent expression of liver genes: brief treatment of LB cells for 2 days
# Protocol: as §1, §2
# To identify the signals that regulate the progression of the LB progenitors from an ALB- to a more differentiated ALB+ state, multiple signaling pathways were systematically screened for their effects on ALB expression (including FGF, WNT, Notch, HGF, cAMP/PKA, TGFβ, and BMP).
# [4] = tested on: hepatic progenitors; experiment: Treatment of hepatic progenitors (days 13-18), hepatocyte-like cell, periportal versus perivenous gene expression; format: cell-based, human
# [5] = tested on: hPSC-derived DE; experiment: Foregut specification: treatment of hPSC-derived DE (day 3), downstream gene expression by RT-qPCR; format: cell-based, human
# Source text: RT-quantitative PCR was used to quantify gene expression. […] During liver development, populations of definitive endoderm cells are first patterned along the anterior-posterior axis to form either the foregut or mid/hindgut. In the present invention the effects of signaling inhibition on the developmental competence of the foregut cells to give rise to the liver bud (LB) cells was examined. Competence is defined as the capacity of one stem cell or progenitor cell to differentiate into its daughter cell type. For example, the posterior foregut is competent when it could give rise to its daughter cell types such as the pancreatic endoderm and LB cells.
# [6] = on removal of the component from a cocktail of signaling factors
# [7] = subtraction from BCDEFV cocktail, day 10
# [8] = 24 h during foregut specification
molecule,measurement,setting,value
Nc1ncnc2c1nc(Br)n2[C@@H]1O[C@@H]2COP(=O)(O)O[C@H]2[C@H]1O [8-bromoCAMP],periportal gene expression,[1],promote
same,"perivenous gene expression (e.g. members of the CYP1, CYP2 and CYP3 families)",[1],reducing
same,expression of cytochrome genes,[1]; [6],increased
same,"expression of LB markers including AFP, CEBPA, HNF6, HNF1B, PROX1, TBX3 and HNF4A",[2]; during LB specification,significantly increase
same,"expression of functional liver enzymes such as FAH, PAH, HGD, HPD, TAT, CPS1, CYP3A4",[3]; days 9-12,enhances
same,hepatic progenitor marker ALB expression,[3]; days 9-12,promotes
"CC1=C(/C=C/C(C)=C\C=C\C(C)=C\C(=O)O)C(C)(C)CCC1 [9-Cis-RA, 3,7-Dimethyl-9-(2,6,6-trimethyl-1-cyclohexen-1-yl)nona-2E,4E,6Z,8E-tetraenoic acid]","expression of CYP3A5, CYP3A7, CYP3A4, CYP2D1, CYP2E1, and CYP1A1",[4],enhance
same,"expression of periportal genes such as ARG1, OTC, ASL1 and CPS1",[4],reduces
"CC(=N)NCc1cccc(CN)c1.Cl.Cl [1400 W dihydrochloride, N-[[3-(Aminomethyl)phenyl]methyl]-ethanimidamide dihydrochloride]","expression of FAH, PAH, HGD, TAT, CPS1, ARG1, FBA, FBB and FBG",[4]; PKG antagonists,upregulate
"Cc1cccc(-c2nn(C(=S)Nc3ccccc3)cc2-c2ccnc3ccccc23)n1 [A83-01, 3-(6-Methyl-2-pyridinyl)-N-phenyl-4-(4-quinolinyl)-1H-pyrazole-1-carbothioamide]","expression of CYP1A1, CYP1A2, CYP2C19, CYP2C9, CYP3A4, CYP3A5, CYP3A7 and CYP7A1",[1]; TGFβ inhibition,increased
same,subsequent expression of ALB,[2],reduces
"O=C1O[C@H]([C@@H](O)CO)C(O)=C1OP(=O)(O)O [AA2P, L-ascorbic acid 2-phosphate]","expression of PAH, HGD, HPD, TAT, MAI, FAH, CYP3A4, ALB and CPS1",[3],enhancement
same,liver maturation,[3]; days 7 to 12 and days 13 to 16,significantly promoted
c1ccc2c(-c3cnn4cc(-c5ccc(N6CCNCC6)cc5)cnc34)ccnc2c1 [BM3189],ALB expression,[3]; added to hPSC-derived LB cells,decreased
"Cc1cnc(-c2cnc(NCCNc3ccc(C#N)cn3)nc2-c2ccc(Cl)cc2Cl)[nH]1 [CHIR99201, 6-[[2-[[4-(2,4-dichlorophenyl)-5-(5-methyl-1H-imidazol-2-yl)-2pyrimidinyl]amino]ethyl]amino]-3-pyridinecarbonitrile]",GLT and GS expression,[1]; [6],decrease
same,"expression of periportal genes like ARG1, SERDH, CPS1",[1]; [6],increased
same,expansion and self-renewal of LB progenitors,[2],enhance
same,LB gene expression,[2],higher
same,expansion,[2],promotes
same,ALB expression,[3]; [7],inhibits
C[C@H](NC(=O)Cc1cc(F)cc(F)c1)C(=O)NC(C(=O)OC(C)(C)C)c1ccccc1 (some centres unmarked) [DAPT],"expression of the majority of cytochrome enzymes (CYP1A1, CYP1A2, CYP2C19, CYP2C9, CYP2D6, CYP2E1, CYP3A4, CYP3A5, CYP3A7, CYP7A1)",[1],upregulated
same,SOX9 expression,[3]; Notch inhibition,reducing
same,ALB expression,[3]; added to hPSC-derived LB cells,enhance
C=C[C@@]1(C)CC(=O)[C@]2(O)[C@@]3(C)[C@@H](O)CCC(C)(C)[C@@H]3[C@H](O)[C@H](OC(C)=O)[C@@]2(C)O1 [Forskolin],"expression of functional liver enzymes such as FAH, PAH, HGD, HPD, TAT, CPS1, CYP3A4",[3],enhances
CC(=O)Nc1cccc(-n2c(=O)n(C3CC3)c(=O)c3c(Nc4ccc(I)cc4F)n(C)c(=O)c(C)c32)c1 [GSK1120212],subsequent expression of liver genes,[3],higher
"Cc1ccc2nc(NC(=O)CSc3nc4c(c(=O)n3-c3ccccc3)SCC4)sc2c1 [IWP2, N-(6-Methyl-2-benzothiazolyl)-2-[(3,4,6,7-tetrahydro-4-oxo-3-phenylthieno[3,2-d]pyrimidin-2-yl)thio]-acetamide]","downstream LB gene expression (AFP, CEBPA, TBX3, HNF1B)",[5]; [8],severely reduces
same,expression of MHG markers CDX2 and EVX1,[5]; [8],reduces
same,"HNF6, PROX1 and HEX expression",[5]; Wnt inhibition during foregut specification,upregulated
"CCN(CC)CCCCNc1ncc2cc(-c3cc(OC)cc(OC)c3)c(NC(=O)NC(C)(C)C)nc2n1 [PD173074, N-[2-[[4-(Diethylamino)butyl]amino]-6-(3,5-dimethoxyphenyl)pyrido[2,3-d]pyrimidin-7-yl]-N′-(1,1-dimethylethyl)urea]",subsequent expression of liver genes,[3],higher
"O=C(NOC[C@H](O)CO)c1ccc(F)c(F)c1Nc1ccc(I)cc1F [PD0325901, N-[(2R)-2,3-Dihydroxypropoxy]-3,4-difluoro-2-[(2-fluoro-4-iodophenyl)amino]-benzamide]","LB gene expression (HNF1A, HNF6, PROX1, TBX3, HNF4A)",[2]; inhibition of FGF/MAPK signaling,reduced
"CC(C)(C(=O)NCC(F)(F)C(F)(F)F)C(=O)N[C@@H]1C(=O)Nc2ccccc2-c2ccccc21 [R04929097, Propanediamide, N1-[(7S)-6,7-dihydro-6-oxo-5H-dibenz[b,d]azepin-7-yl]-2,2-dimethyl-N3-(2,2,3,3,3-pentafluoropropyl)-]","expression of the majority of cytochrome enzymes (CYP1A1, CYP1A2, CYP2C19, CYP2C9, CYP2D6, CYP2E1, CYP3A4, CYP3A5, CYP3A7, CYP7A1)",[1],upregulated
same,SOX9 expression,[3]; Notch inhibition,reducing
same,ALB expression,[3]; added to hPSC-derived LB cells,enhance
Nc1ncnc2c1ncn2[C@@H]1O[C@@H]2CO[P@@](O)(=S)O[C@H]2[C@H]1O [RpCAMP],p450 cytochrome expression,[1],promoted
"Cc1cccc(-c2[nH]c(C(C)(C)C)nc2-c2ccc3c(c2)OCO3)n1 [SB505124, 2-[4-(1,3-Benzodioxol-5-yl)-2-(1,1-dimethylethyl)-1H-imidazol-5-yl]-6-methyl-pyridine]",effect on the cytochrome expression compared with A83-01,[1],stronger
same,"expression of CYP1A1, CYP1A2, CYP2C19, CYP2C9, CYP3A4, CYP3A5, CYP3A7 and CYP7A1",[1],increased
same,subsequent expression of ALB,[2],reduces
same,competence of hepatic progenitors to generate hepatocyte-like cells,[3],reduces
same,"expression of liver genes such as ALB, CYP3A4, CPS1, FAH, TAT, PAH, HGD, HPD and MAI",[3],lower
same,"later functional liver gene expression of TAT, FAH, PAH, HGD, HPD, and MAI",[3]; brief treatment on days 7-8,higher
C[N+](C)(C)CCO.[Cl-] [choline chloride],"expression of ALB, FAH, PAH, TAT, CYP3A4, CYP3A7, AAT, THR, FBA, FBB, FBG and TBX3",[3]; higher levels of phospholipid precursor,increases
Nc1ncnc2c1ncn2[C@@H]1O[C@@H]2COP(O)(=S)O[C@H]2[C@H]1O (some centres unmarked) [spCAMP],periportal gene expression,[1],promote
same,"perivenous gene expression (e.g. members of the CYP1, CYP2 and CYP3 families)",[1],reducing
FGF2: activator of FGF signaling,"subsequent liver bud gene expression of CEBPA, HNF1A, HNF6, PROX1",[5]; provided to DE cells during foregut specification,increase
same,expansion and self-renewal of LB progenitors,[2],enhance
same,"LB gene expression of HNF1A, HNF6, PROX1, TBX3, HNF4A, AFP, CEBPA, HNF1B",[2]; addition in CDM KOSR base media,did not benefit
same,ALB expression,[3]; 20 ng/ml,reduction
same,SOX9 expression,[3]; 20 ng/ml,slightly increase
same,ALB expression,[3]; [7],inhibits
HGF: Hepatocyte growth factor,ALB expression,[3]; added to hPSC-derived LB cells,promotes
Wnt3A,"perivenous xenobiotic gene expression (e.g. CYP3A4, CYP3A5 and CYP3A7)",[1],increased
same,LB gene expression,[2],higher
same,expansion,[2],promotes
B1,competence to generate LB cells,[5]; treatment during foregut specification,mildly enhanced
same,LB specification,[2],promotes
same,"dose that maximally induces expression of LB genes (HNF4A, PROX1, AFP, TBX3, HNF1B, HNF1A, HNF6, CEBPA)",[2],30 to 40 ng/mL
same,pancreatic specification,[2],inhibited
same,ALB expression,[3]; added to hPSC-derived LB cells,promote; also recorded: increased
B2,ALB expression,[3]; added to hPSC-derived LB cells,promoted
